Source: patent US20250213563A1, “SUBSTITUTED PYRIMIDIN-4(3H)-ONES FOR USE IN TREATING CANCER” (NAVIRE PHARMA, INC., priority 2021, published 2025)
Where two headings read alike, the source gives them in different places.

Legend:
[1] = tested on: panel of 419 human kinases; assay: KINOMEscan competition binding panel; conditions: 1 μM; 419 kinases tested
Description: (§1) Activity of Compound (10b) (1 μM) was assessed against a panel of 419 human kinases (including a set of disease-relevant mutant variants). Assays were conducted using the KINOMEscan™ platform from DiscoverX which measures compound interaction with kinases using active site-directed competition binding assays. Displacement of ligand binding to the kinase by <35% of the control value is considered significant. Of the 419 kinases tested, only 4 kinases reached this level of displacement: Protein kinase C eta (PRKCH), 34% control; Large tumor suppressor kinase 1 (LATS1), 32% control; General control nonderepressible 2 kinase (GCN2), 21% control; and Hematopoietic Progenitor Kinase 1 (HPK1), 4.4% control.

[2] = tested on: General control nonderepressible 2 kinase (GCN2); assay: KINOMEscan competition binding; parameters: species or system human; conditions: 1 μM
Description: as §1

[3] = Single-dose pharmacokinetics, summary across species; type: in vivo; conditions: both sexes, CD-1, C57BL/6, Sprague Dawley, Beagle, mouse, rat, dog, monkey, plasma
Description: The pharmacokinetic (PK) parameters of Compound (10b) (freebase) were determined following single intravenous (IV) and oral (PO) administration in female CD-1 mouse, female C57BL/6 mouse (PO only), male Sprague Dawley rat, male Beagle dog, and male Cynomolgus monkey. Additional evaluation of the PK properties of Compound (10b) was obtained following single dose PO administration in female CD-1 mouse, male Sprague Dawley rat and male Beagle dog over a dose range spanning 10 to 300 mg/kg (mouse and rat) and 1 to 100 mg/kg (dog). The intravenous dose solutions were prepared in 20% DMSO-60% PEG400-20% water and the oral dose solutions as suspensions in 0.5% methylcellulose in water, unless otherwise noted. Plasma concentration profiles were generated from serial sampling in individual animals up to 24 hours post dose, except for the studies in mice where composite sampling methods were used (i.e. 3 sampling times per mouse; 9 mice per group). […] Exposures increased with increasing dose level across species, in a dose-proportional manner in mouse and dog, and in a greater than dose-proportional manner in rat (80× increase in AUC with a 30× increase in dosage).

[4] = tested on: KYSE-520; assay: DUSP6 mRNA levels (qPCR); type: cell-based; conditions: Homo sapiens; KYSE-520, EGFR^amp
Description: (§2) The potency of Compound (10b) in a panel of human tumor cell lines with active MAPK signaling was assessed. Cell viability in a 3D culture system was assessed by measuring CellTiter-Glo (CTG) luminescence following 8 days of treatment with nine concentrations of Compound (10b). MAPK pathway signaling was assessed by measuring pERK protein levels and DUSP6 mRNA levels by homogeneous time resolved fluorescence (HTRF) and quantitative polymerase chain reaction (qPCR), respectively. […] These viability effects correlated with pERK inhibition (Table 2, FIG. 6B) and DUSP6 inhibition (FIG. 6C).

[5] = tested on: NCI-H358; assay: DUSP6 mRNA levels (qPCR); type: cell-based; conditions: Homo sapiens; NCI-H358, KRAS^G12C
Description: as §2

[6] = Phase 1/1B first-in-human study, safety and PK (Cohorts 1-5); type: in vivo; parameters: Cmax/D / AUC/D: unit not given beside the values; conditions: for AUC/D: calculated using AUClast; for AUC(0-t) / Cmax / Tmax / half-life: human, plasma
Excerpt: The initial results were from Cohorts 1-5 of the Phase 1/1B First-in-Human Study of Example 6.
No safety findings impacting the risk or benefit of compound (10b) reported in the 19 patients dosed. Nine (9) treatment-emergent serious adverse events (SAEs) were reported in 7 patients, none of which were deemed related to the treatment with compound (10b).

[7] = target: hERG potassium channel (Homo sapiens, UniProt Q12809); assay: hERG manual whole cell patch clamp in CHO cells
Description: HERG channel currents were recorded from single cells using standard whole cell recording techniques. The cells were voltage clamped at a holding potential of −80 mV. The hERG current was activated by depolarizing at +20 mV for 5 sec, after which the current was taken back to −50 mV for 5 sec to remove the inactivation and observe the deactivating tail current. The K+ tail current through HERG channels observed during this step was allowed to stabilize under continuous bath perfusion. […] Steady state was considered reached when three consecutive super-imposable current records were collected.

[8] = 250 mg QD, C1D1, N=2 (1 subject excluded)
[9] = oral, 80 mg, 80 mg QD, C1D1, N=1
[10] = oral, 80 mg, 80 mg QD, C2D1, N=1
[11] = oral, 150 mg, 150 mg QD, C1D1, N=3
[12] = oral, 150 mg, 150 mg QD, C2D1, N=3
[13] = oral, 250 mg, 250 mg QD, C1D1, N=2 (1 subject excluded)
[14] = oral, 250 mg, 250 mg QD, C2D1, N=1
[15] = oral, 400 mg, 400 mg QD, C1D1, N=5
[16] = oral, 400 mg, 400 mg QD, C2D1, N=3
[17] = oral, 550 mg, 550 mg QD, C1D1, N=6

Sequence of hERG potassium channel (Q12809 whole entry): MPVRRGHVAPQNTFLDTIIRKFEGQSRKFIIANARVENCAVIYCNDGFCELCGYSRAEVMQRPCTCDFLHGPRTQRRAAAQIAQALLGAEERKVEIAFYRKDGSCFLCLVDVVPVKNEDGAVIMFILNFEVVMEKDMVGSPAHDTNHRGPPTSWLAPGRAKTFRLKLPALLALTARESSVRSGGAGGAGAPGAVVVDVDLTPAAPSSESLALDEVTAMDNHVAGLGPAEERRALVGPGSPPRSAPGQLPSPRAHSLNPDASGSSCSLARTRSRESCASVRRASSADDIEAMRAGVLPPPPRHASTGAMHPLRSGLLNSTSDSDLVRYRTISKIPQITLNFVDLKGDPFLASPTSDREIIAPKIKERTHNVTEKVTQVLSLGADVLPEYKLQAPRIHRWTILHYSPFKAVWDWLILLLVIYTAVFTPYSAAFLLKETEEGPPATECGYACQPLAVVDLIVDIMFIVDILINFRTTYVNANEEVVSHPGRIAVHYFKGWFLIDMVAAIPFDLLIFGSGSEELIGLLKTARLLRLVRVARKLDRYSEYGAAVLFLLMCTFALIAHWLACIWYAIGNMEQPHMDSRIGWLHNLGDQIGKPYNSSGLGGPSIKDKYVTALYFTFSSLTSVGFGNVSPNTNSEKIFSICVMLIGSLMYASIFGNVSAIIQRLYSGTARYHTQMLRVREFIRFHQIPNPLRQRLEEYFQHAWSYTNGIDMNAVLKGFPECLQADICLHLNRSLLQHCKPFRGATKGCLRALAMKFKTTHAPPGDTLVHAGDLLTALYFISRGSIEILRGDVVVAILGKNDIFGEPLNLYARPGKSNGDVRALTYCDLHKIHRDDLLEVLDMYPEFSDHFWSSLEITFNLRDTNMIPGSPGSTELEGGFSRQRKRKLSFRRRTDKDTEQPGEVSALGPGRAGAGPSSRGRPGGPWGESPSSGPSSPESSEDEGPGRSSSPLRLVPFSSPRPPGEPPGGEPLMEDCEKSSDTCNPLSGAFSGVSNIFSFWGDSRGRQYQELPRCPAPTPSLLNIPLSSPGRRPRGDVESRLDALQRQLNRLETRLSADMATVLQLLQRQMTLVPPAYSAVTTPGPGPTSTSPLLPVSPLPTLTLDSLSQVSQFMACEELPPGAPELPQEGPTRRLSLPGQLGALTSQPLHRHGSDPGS

With `Cc1c(N2CCC3(CC2)CO[C@@H](C)[C@H]3N)nc(C)n(-c2cccc(Cl)c2Cl)c1=O` (atropisomer, axis not shown; (Ra)) [Compound (10b), 6-((3S,4S)-4-amino-3-methyl-2-oxa-8-azaspiro[4.5]decan-8-yl)-3-(Ra)-(2,3-dichlorophenyl)-2,5-dimethylpyrimidin-4(3H)-one] the “number of kinases with displacement <35% of control” value [1] was 4, the “ligand binding, % control” value [2] was 21 % control and the Tmax ([3]; oral 1-100 mg/kg) was 0.25 to 3.67 h. It also gave a bioavailability ([3]; oral doses 3- to 30-fold higher than intravenous doses, read-out: apparent oral bioavailabilities) of 51.2 to 115%, an IC50 [4] of 60 nM and an IC50 [5] of 820 nM. The Cmax/D ([6]; 80 mg QD, C1D1, N=1) was 5.06, the AUC/D ([6]; 80 mg QD, C1D1, N=1) was 61.1 and the “P/T Ratio” value ([6]; 80 mg QD, C2D1, N=1) was 6.82. The Cmax/D ([6]; 150 mg QD, C1D1, N=3) was 4.34, the AUC/D ([6]; 150 mg QD, C1D1, N=3) was 64.3 and the “P/T Ratio” value ([6]; 150 mg QD, C2D1, N=3) was 3.19. For the same compound, the Cmax/D [6, 8] was 3.19, the AUC/D [6, 8] was 42.4 and the “P/T Ratio” value ([6]; 250 mg QD, C2D1, N=1) was 2.81. The Cmax/D ([6]; 400 mg QD, C1D1, N=5) was 3.85, the AUC/D ([6]; 400 mg QD, C1D1, N=5) was 47.0 and the “P/T Ratio” value ([6]; 400 mg QD, C2D1, N=3) was 3.42. For the same compound, the Cmax/D ([6]; 550 mg QD, C1D1, N=6) was 4.63, the AUC/D ([6]; 550 mg QD, C1D1, N=6) was 68.6 and the “Number of patients (n = 19) with TEAE: Constipation” value ([6]; Cohorts 1-5) was 1. The “Number of patients (n = 19) with TEAE: Diarrhea” value ([6]; Cohorts 1-5) was 5, the “Number of patients (n = 19) with TEAE: Edema” value ([6]; Cohorts 1-5) was 4 and the “Number of patients (n = 19) with TEAE: LFT increases” value ([6]; Cohorts 1-5) was 2. The “Number of patients (n = 19) with TEAE: LVEF decrease” value ([6]; Cohorts 1-5) was 1, the “Number of patients (n = 19) with TEAE: Nausea/vomiting” value ([6]; Cohorts 1-5) was 4 and the “Number of patients (n = 19) with TEAE: Rash” value ([6]; Cohorts 1-5) was 2. The “adverse events leading to study discontinuation” value ([6]; Cohorts 1-5) was “No adverse events (AEs) led to study discontinuation”, the “dose-limiting toxicity (DLTs)” value ([6]; Cohorts 1-5) was “no dose-limiting toxicity and None” and the “number of patients with treatment-emergent SAEs” value ([6]; Cohorts 1-5, 19 patients dosed) was 7. For the same compound, the “number of treatment-emergent serious adverse events (SAEs)” value ([6]; Cohorts 1-5, 19 patients dosed) was 9, the “treatment-emergent SAEs deemed related to the treatment” value ([6]; Cohorts 1-5, 19 patients dosed) was “none” and the tolerability ([6]; Cohorts 1-5: 80, 150, 250, 400, 550 mg once daily, 19 patients) was “well tolerated”. It also gave an AUC(0-t) [6, 9] of 4890 ng·h/mL, a Cmax [6, 9] of 405 ng/mL and a Tmax [6, 9] of 2 h. For the same compound, the AUC(0-t) [6, 10] was 6290 ng·h/mL, the Cmax [6, 10] was 622 ng/mL and the Tmax [6, 10] was 1 h. It also gave a half-life ([6]; oral, 80 mg, 80 mg QD, C2D1, N=1, read-out: t1/2 (converted)) of 10 h, an AUC(0-t) [6, 11] of 9650 ng·h/mL and a Cmax [6, 11] of 651 ng/mL. It also gave a Tmax [6, 11] of 2 h, a half-life ([6]; oral, 150 mg, 150 mg QD, C2D1, N = 1, read-out: t1/2 (converted)) of 10.1 h and an AUC(0-t) [6, 12] of 18200 ng·h/mL. For the same compound, the Cmax [6, 12] was 1120 ng/mL, the Tmax [6, 12] was 3.33 h and the half-life ([6]; oral, 250 mg, 250 mg QD, C1D1, N = 1, read-out: t1/2 (converted)) was 9.44 h. The AUC(0-t) [6, 13] was 10600 ng·h/mL, the Tmax [6, 13] was 3 h and the Cmax ([6]; oral, 250 mg, 250 mg QD, C1D1, N=2 (1 subject with active gastritis excluded)) was 797 ng/mL. For the same compound, the AUC(0-t) [6, 14] was 21600 ng·h/mL, the Cmax [6, 14] was 1380 ng/mL and the Tmax [6, 14] was 2 h. The half-life ([6]; oral, 400 mg, 400 mg QD, C1D1, N = 1, read-out: t1/2 (converted)) was 10.1 h, the AUC(0-t) [6, 15] was 18800 ng·h/mL and the Cmax [6, 15] was 1540 ng/mL. The Tmax [6, 15] was 3 h, the half-life ([6]; oral, 400 mg, 400 mg QD, C2D1, N = 1, in parentheses: interpret with caution (large extrapolated AUC), read-out: t1/2 (converted)) was 12.3 h and the AUC(0-t) [6, 16] was 32000 ng·h/mL. It also gave a Cmax [6, 16] of 2270 ng/mL, a Tmax [6, 16] of 3 h and an AUC(0-t) [6, 17] of 37700 ng·h/mL. The Cmax [6, 17] was 2550 ng/mL, the Tmax [6, 17] was 2.67 h and the half-life ([6]; oral, read-out: Human Half life) was 10 to 16 h. It also gave a half-life ([6]; po, 80 mg, 80 mg QD, C1D1, N=1, in parentheses: interpret with caution (large extrapolated AUC), read-out: t1/2 (converted)) of 14.9 h, a half-life ([6]; po, 150 mg, 150 mg QD, C1D1, N=3, in parentheses: interpret with caution (large extrapolated AUC), read-out: t1/2 (converted)) of 15.6 h and a half-life ([6]; po, 550 mg, 550 mg QD, C1D1, N=6, in parentheses: interpret with caution (large extrapolated AUC), read-out: t1/2 (converted)) of 13.5 h. For the same compound, the IC50 [7] was > 100000 nM, the “inhibition of hERG activity relative to vehicle control” value ([7]; 100 μM) was 25.7% and the “effect on hERG channel activity” value ([7]; 0.3 to 30 μM) was “no effect”.
